Test results reported in US20090074869A1, “PHARMACEUTICAL FORMULATIONS” (Schering Corporation, priority 2003, published 2009).

What was measured:
[1] = solubility in water and wettability of the crystalline form; format: physicochemical
[2] = target: PDE V (Homo sapiens, UniProt O76074); assay: PDE V inhibition; format: biochemical
[3] = absorption and bioavailability tests in animals; format: in vivo

solubility in water [1]: poor
wettability ([1]; crystalline form): poor
effectiveness as a PDE V inhibitor [2]: particularly effective
specificity for PDE isozyme [2]: specificity for the PDE V isozyme
absorption from the gastrointestinal tract ([3]; in vivo): slow
bioavailability ([3]; tests conducted so far in animals): low
SMILES: CCn1c(=O)c2c(nc(N[C@@H]3CCC[C@H]3O)n2Cc2ccc(OC)c(Br)c2)n(CCO)c1=O [7-[(3-Bromo-4-methoxyphenyl)methyl]-1-ethyl-3,7-dihydro-8-[[(1R,2R)-2-hydroxycyclopentyl]amino]-3-(2-hydroxyethyl)-1H-purine-2,6-dione]
